Measurements reported in US12221656B2, “Methods and materials for assessing homologous recombination deficiency” (Myriad Genetics, Inc., priority 2014, dated 2025).

Test system: triple negative breast cancer (TNBC)
Assay: Neoadjuvant cisplatin cohort, pathologic response in triple negative breast cancer
Format: in vivo, human
Settings: for Pathologic complete response (pCR = yes), % response / Pathologic response (PR = yes), % response: secondary analysis, n=51
Description: Analysis of a neoadjuvant TNBC cohort treated with cisplatin was examined relative to the relationship between all three HRD scores and response. All p values were from logistic regression models with response to cisplatin as the dependent variable.
HR Deficiency status was determined for 62 of the 70 samples (70 individual patients) received from a cisplatin cohort (8 had insufficient tumors for analysis). Of these, 31 (50%) were HR deficient, 22 (35%) were non-HR deficient, and 9 (15%) were undetermined. FIG. 15 provides a histogram showing the distribution of HRD scores in the cohort. […] were considered to have high HRD (see also, Example 5). […] Pathologic complete response (pCR), which is associated with long-term survival, was defined as a residual cancer burden (RBC) of 0 and observed in 11/59 (19%) samples. […] These overall response rates correlated with monotherapy expectations.
Statistical analyses followed a predefined Statistical Analysis Plan (SAP), which included primary, secondary, and BRCA wild-type subset analyses.

N.N.[Cl][Pt][Cl] [cisplatin]
Pathologic complete response (pCR = yes), % response (BRCA Mutant): 3 (33.3%) | Pathologic response (PR = yes), % response (BRCA Mutant): 5 (55.6%) | Pathologic complete response (pCR = yes), % response (BRCA Non-mutant): 5 (11.9%) | Pathologic response (PR = yes), % response (BRCA Non-mutant): 13 (31.0%) | Pathologic complete response (pCR), residual cancer burden of 0 (whole cisplatin cohort, 11/59 samples): 19% | Pathologic response (PR), residual cancer burden of 0 or 1 (whole cisplatin cohort, 22/59 samples): 37%
